According to ChEMBL document CHEMBL3392994, “Methoxyflavones from Stachys glutinosa with binding affinity to opioid receptors: in silico, in vitro, and in vivo studies” (J Nat Prod, 2015):
Active and inactive are the calls of the source. The calls are words filed in the database; no cut-off is given here.

Experiments:
Mu-type opioid receptor = Mu-type opioid receptor (Mus musculus, UniProt P42866); assay: Displacement of [3H]DAMGO from mu opioid receptor in CD1 mouse whole brain minus cerebellum membranes by liquid scintillation counting; type: tissue-based, Membrane
[1] = target: Delta-type opioid receptor (Mus musculus, UniProt P32300); assay: Displacement of [3H]DPDPE from delta opioid receptor in CD1 mouse whole brain minus cerebellum membranes by liquid scintillation counting; type: tissue-based, Membrane
Mus musculus [2] = organism: Mus musculus; assay: Selectivity ratio of Ki for delta opioid receptor in CD1 mouse whole brain minus cerebellum membranes to Ki for mu opioid receptor in CD1 mouse whole brain minus cerebellum membranes; type: tissue-based
Mus musculus [3] = assay: Inhibition of morphine-induced analgesia in CD1 mouse model at 40 mg/kg, ip pretreated 30 mins before 5 mg/kg, sc morphine injection and measured 30 to 120 mins after morphine treatment by tail-flick assay relative to control; type: functional, organism-based
Mus musculus [4] = assay: Analgesic activity in acute pain CD1 mouse model assessed as withdrawal latency from radiant heat source at 40 to 80 mg/kg, ip by tail-flick assay; type: functional, organism-based
Mus musculus [5] = assay: Inhibition of morphine-induced analgesia in CD1 mouse model at 80 mg/kg, ip pretreated 30 mins before 5 mg/kg, sc morphine injection and measured 30 to 120 mins after morphine treatment by tail-flick assay relative to control; type: functional, organism-based

| Compound | Ki (Mu-type opioid receptor) | Ki [1] | Ratio Ki (Mus musculus [2]) | inhibition (Mus musculus [3]) | Activity (Mus musculus [4]) | inhibition (Mus musculus [5]) |
| --- | --- | --- | --- | --- | --- | --- |
| C=CC(C)(O)CC[C@@]1(C)[C@H](C)CC[C@]2(C)[C@@H]1C[C@@H](O)[C@H]1O[C@]12C (stereo partly drawn) | > 50 µM | 25 µM | – | – | – | – |
| C=CC(C)(O)CC[C@@]1(C)[C@H](C)CC[C@@]2(C)C(C)=CC(=O)C[C@H]12 (stereo partly drawn) | 40.5 µM | 23.5 µM | – | – | – | – |
| COc1cc(-c2cc(=O)c3c(O)c(OC)c(OC)c(OC)c3o2)ccc1O | > 50 µM | 37.5 µM | – | – | – | – |
| COc1ccc(-c2cc(=O)c3c(O)c(OC)c(O)cc3o2)cc1OC [EUPATILIN] | 28 µM | 12 µM | 0.43 | – | – | – |

Now from value to compound, other results behind:

| Ki (Mu-type opioid receptor) | Ki [1] | Ratio Ki (Mus musculus [2]) | Compound | inhibition (Mus musculus [3]) | Activity (Mus musculus [4]) | inhibition (Mus musculus [5]) |
| --- | --- | --- | --- | --- | --- | --- |
| > 50 µM | > 50 µM | – | COc1ccc(-c2cc(=O)c3c(O)c(OC)c(OC)c(OC)c3o2)cc1 [GARDENIN B] | – | – | – |
| 18.5 µM | 12.5 µM | 0.68 | COc1c(OC)c(O)c2c(=O)cc(-c3ccc(O)c(O)c3)oc2c1OC [SIDERITIFLAVONE] | – | – | – |
| 16.3 µM | 7 µM | 0.43 | COc1ccc(-c2cc(=O)c3c(OC)c(OC)c(OC)c(OC)c3o2)cc1 [TANGERETIN] | – | – | – |
| 0.83 µM | 3.6 µM | 4.36 | COc1c(OC)c(O)c2c(=O)cc(-c3ccc(O)cc3)oc2c1OC [XANTHOMICROL] | inactive | inactive | Active |
